Calls of active or inactive are those of the source. The rule behind the calls is not given here.
Experiments:
Serratia marcescens [1] = assay: Antibacterial activity against gentamicin-resistant Serratia marcescens clinical isolate after 18 hrs by agar dilution method; assay type: functional
Klebsiella aerogenes [2] = assay: Antibacterial activity against non-gentamicin-resistant Enterobacter aerogenes clinical isolate assessed as susceptible isolates after 18 hrs by agar dilution method; assay type: functional
Staphylococcus aureus [3] = assay: Antibacterial activity against non-gentamicin-resistant Staphylococcus aureus clinical isolate after 18 hrs by agar dilution method; assay type: functional
Enterobacter cloacae [4] = assay: Antibacterial activity against non-gentamicin-resistant Enterobacter cloacae clinical isolate assessed as susceptible isolates after 18 hrs by agar dilution method; assay type: functional
Klebsiella aerogenes [5] = assay: Antibacterial activity against gentamicin-resistant Enterobacter aerogenes clinical isolate after 18 hrs by agar dilution method; assay type: functional
Klebsiella pneumoniae [6] = assay: Antibacterial activity against non-gentamicin-resistant Klebsiella pneumoniae clinical isolate after 18 hrs by agar dilution method; assay type: functional
Escherichia coli [7] = assay: Antibacterial activity against gentamicin-resistant Escherichia coli clinical isolate assessed as susceptible isolates after 18 hrs by agar dilution method; assay type: functional
Citrobacter freundii [8] = assay: Antibacterial activity against non-gentamicin-resistant Citrobacter freundii clinical isolate after 18 hrs by agar dilution method; assay type: functional
Escherichia coli [9] = assay: Antibacterial activity against gentamicin-resistant Escherichia coli clinical isolate after 18 hrs by agar dilution method; assay type: functional
Citrobacter freundii [10] = assay: Antibacterial activity against non-gentamicin-resistant Citrobacter freundii clinical isolate assessed as susceptible isolates after 18 hrs by agar dilution method; assay type: functional
Enterococcus faecalis = assay: Antibacterial activity against gentamicin-resistant Enterococcus faecalis clinical isolate assessed as susceptible isolates after 18 hrs by agar dilution method; assay type: functional, organism-based
Haemophilus influenzae [11] = assay: Antibacterial activity against non-gentamicin-resistant Haemophilus influenzae clinical isolate assessed as susceptible isolates after 18 hrs by agar dilution method; assay type: functional, organism-based
Serratia marcescens [12] = assay: Antibacterial activity against non-gentamicin-resistant Serratia marcescens clinical isolate assessed as susceptible isolates after 18 hrs by agar dilution method; assay type: functional
[13] = tested on: Haemophilus parainfluenzae; assay: Antibacterial activity against non-gentamicin-resistant Haemophilus parainfluenzae clinical isolate assessed as susceptible isolates after 18 hrs by agar dilution method; assay type: functional, organism-based
Pseudomonas sp. [14] = assay: Antibacterial activity against gentamicin-resistant Pseudomonas spp. clinical isolate after 18 hrs by agar dilution method; assay type: functional
Morganella morganii [15] = assay: Antibacterial activity against non-gentamicin-resistant Morganella morganii clinical isolate after 18 hrs by agar dilution method; assay type: functional
Proteus mirabilis = assay: Antibacterial activity against gentamicin-resistant Proteus mirabilis clinical isolate after 18 hrs by agar dilution method; assay type: functional
Klebsiella aerogenes [16] = assay: Antibacterial activity against gentamicin-resistant Enterobacter aerogenes clinical isolate assessed as susceptible isolates after 18 hrs by agar dilution method; assay type: functional
Citrobacter freundii [17] = assay: Antibacterial activity against gentamicin-resistant Citrobacter freundii clinical isolate assessed as susceptible isolates after 18 hrs by agar dilution method; assay type: functional
Klebsiella pneumoniae [18] = assay: Antibacterial activity against gentamicin-resistant Klebsiella pneumoniae clinical isolate after 18 hrs by agar dilution method; assay type: functional
[19] = tested on: Staphylococcus epidermidis; assay: Antibacterial activity against non-gentamicin-resistant Staphylococcus epidermidis clinical isolate assessed as susceptible isolates after 18 hrs by agar dilution method; assay type: functional
Staphylococcus aureus [20] = assay: Antibacterial activity against gentamicin-resistant Staphylococcus aureus clinical isolate after 18 hrs by agar dilution method; assay type: functional
Haemophilus influenzae [21] = assay: Antibacterial activity against non-gentamicin-resistant Haemophilus influenzae clinical isolate after 18 hrs by agar dilution method; assay type: functional
Morganella morganii [22] = assay: Antibacterial activity against gentamicin-resistant Morganella morganii clinical isolate after 18 hrs by agar dilution method; assay type: functional
Enterobacter cloacae [23] = assay: Antibacterial activity against non-gentamicin-resistant Enterobacter cloacae clinical isolate after 18 hrs by agar dilution method; assay type: functional
Serratia marcescens [24] = assay: Antibacterial activity against gentamicin-resistant Serratia marcescens clinical isolate assessed as susceptible isolates after 18 hrs by agar dilution method; assay type: functional
[25] = tested on: Acinetobacter calcoaceticus; assay: Antibacterial activity against gentamicin-resistant Acinetobacter calcoaceticus clinical isolate assessed as susceptible isolates after 18 hrs by agar dilution method; assay type: functional
Morganella morganii [26] = assay: Antibacterial activity against non-gentamicin-resistant Morganella morganii clinical isolate assessed as susceptible isolates after 18 hrs by agar dilution method; assay type: functional
[27] = tested on: Staphylococcus epidermidis; assay: Antibacterial activity against gentamicin-resistant Staphylococcus epidermidis clinical isolate assessed as susceptible isolates after 18 hrs by agar dilution method; assay type: functional
Klebsiella aerogenes [28] = assay: Antibacterial activity against non-gentamicin-resistant Enterobacter aerogenes clinical isolate after 18 hrs by agar dilution method; assay type: functional
Citrobacter koseri [29] = assay: Antibacterial activity against non-gentamicin-resistant Citrobacter diversus clinical isolate assessed as susceptible isolates after 18 hrs by agar dilution method; assay type: functional
Citrobacter koseri [30] = assay: Antibacterial activity against gentamicin-resistant Citrobacter diversus clinical isolate assessed as susceptible isolates after 18 hrs by agar dilution method; assay type: functional
Citrobacter koseri [31] = assay: Antibacterial activity against non-gentamicin-resistant Citrobacter diversus clinical isolate after 18 hrs by agar dilution method; assay type: functional
Pseudomonas aeruginosa [32] = assay: Antibacterial activity against non-gentamicin-resistant Pseudomonas aeruginosa clinical isolate after 18 hrs by agar dilution method; assay type: functional
Citrobacter koseri [33] = assay: Antibacterial activity against gentamicin-resistant Citrobacter diversus clinical isolate after 18 hrs by agar dilution method; assay type: functional
Klebsiella pneumoniae [34] = assay: Antibacterial activity against gentamicin-resistant Klebsiella pneumoniae clinical isolate assessed as susceptible isolates after 18 hrs by agar dilution method; assay type: functional
Enterobacter cloacae [35] = assay: Antibacterial activity against gentamicin-resistant Enterobacter cloacae clinical isolate after 18 hrs by agar dilution method; assay type: functional
Pseudomonas aeruginosa [36] = assay: Antibacterial activity against non-gentamicin-resistant Pseudomonas aeruginosa clinical isolate assessed as susceptible isolates after 18 hrs by agar dilution method; assay type: functional
Morganella morganii [37] = assay: Antibacterial activity against gentamicin-resistant Morganella morganii clinical isolate assessed as susceptible isolates after 18 hrs by agar dilution method; assay type: functional
Escherichia coli [38] = assay: Antibacterial activity against non-gentamicin-resistant Escherichia coli clinical isolate assessed as susceptible isolates after 18 hrs by agar dilution method; assay type: functional
Providencia rettgeri [39] = assay: Antibacterial activity against non-gentamicin-resistant Proteus rettgeri clinical isolate assessed as susceptible isolates after 18 hrs by agar dilution method; assay type: functional
Pseudomonas sp. [40] = assay: Antibacterial activity against gentamicin-resistant Pseudomonas spp. clinical isolate assessed as susceptible isolates after 18 hrs by agar dilution method; assay type: functional
Providencia rettgeri [41] = assay: Antibacterial activity against gentamicin-resistant Proteus rettgeri clinical isolate assessed as susceptible isolates after 18 hrs by agar dilution method; assay type: functional
Staphylococcus aureus [42] = assay: Antibacterial activity against non-gentamicin-resistant Staphylococcus aureus clinical isolate assessed as susceptible isolates after 18 hrs by agar dilution method; assay type: functional
[43] = tested on: Staphylococcus epidermidis; assay: Antibacterial activity against non-gentamicin-resistant Staphylococcus epidermidis clinical isolate after 18 hrs by agar dilution method; assay type: functional
Providencia rettgeri [44] = assay: Antibacterial activity against gentamicin-resistant Proteus rettgeri clinical isolate after 18 hrs by agar dilution method; assay type: functional

GENTAMICIN
MIC50 (Serratia marcescens [1]): > 128 µg/mL | MIC90 (Serratia marcescens [1]): > 128 µg/mL | Activity (Klebsiella aerogenes [2]): 98.1% | MIC50 (Staphylococcus aureus [3]): 0.125 µg/mL | MIC90 (Staphylococcus aureus [3]): 8 µg/mL | Activity (Enterobacter cloacae [4]): 98.2% | MIC50 (Klebsiella aerogenes [5]): > 128 µg/mL | MIC90 (Klebsiella aerogenes [5]): > 128 µg/mL | MIC50 (Klebsiella pneumoniae [6]): 0.25 µg/mL | MIC90 (Klebsiella pneumoniae [6]): 0.5 µg/mL | Activity (Escherichia coli [7]): 0% | MIC50 (Citrobacter freundii [8]): 0.25 µg/mL | MIC90 (Citrobacter freundii [8]): 1 µg/mL | MIC50 (Escherichia coli [9]): 64 µg/mL | MIC90 (Escherichia coli [9]): > 128 µg/mL | Activity (Citrobacter freundii [10]): 100% | Activity (Enterococcus faecalis): inactive | Activity (Haemophilus influenzae [11]): inactive | Activity (Serratia marcescens [12]): 100% | Activity [13]: inactive | MIC50 (Pseudomonas sp. [14]): 128 µg/mL | MIC90 (Pseudomonas sp. [14]): > 128 µg/mL | MIC90 (Morganella morganii [15]): 8 µg/mL | MIC50 (Proteus mirabilis): 128 µg/mL | MIC90 (Proteus mirabilis): > 128 µg/mL | Activity (Klebsiella aerogenes [16]): 0% | Activity (Citrobacter freundii [17]): 0% | MIC50 (Klebsiella pneumoniae [18]): 128 µg/mL | MIC90 (Klebsiella pneumoniae [18]): > 128 µg/mL | Activity [19]: 92.5% | MIC50 (Staphylococcus aureus [20]): 32 µg/mL | MIC90 (Staphylococcus aureus [20]): 128 µg/mL | MIC50 (Haemophilus influenzae [21]): 2 µg/mL | MIC90 (Haemophilus influenzae [21]): 2 µg/mL | MIC50 (Morganella morganii [22]): 128 µg/mL | MIC90 (Morganella morganii [22]): > 128 µg/mL | MIC50 (Enterobacter cloacae [23]): 0.25 µg/mL | MIC90 (Enterobacter cloacae [23]): 0.5 µg/mL | Activity (Serratia marcescens [24]): 0% | Activity [25]: 0% | Activity (Morganella morganii [26]): 76% | Activity [27]: 0% | MIC50 (Klebsiella aerogenes [28]): 0.25 µg/mL | MIC90 (Klebsiella aerogenes [28]): 0.5 µg/mL | Activity (Citrobacter koseri [29]): 100% | Activity (Citrobacter koseri [30]): 0% | MIC50 (Citrobacter koseri [31]): 0.25 µg/mL | MIC90 (Citrobacter koseri [31]): 0.5 µg/mL | MIC50 (Pseudomonas aeruginosa [32]): 4 µg/mL | MIC90 (Pseudomonas aeruginosa [32]): 8 µg/mL | MIC50 (Citrobacter koseri [33]): > 128 µg/mL | MIC90 (Citrobacter koseri [33]): > 128 µg/mL | Activity (Klebsiella pneumoniae [34]): 0% | MIC50 (Enterobacter cloacae [35]): > 128 µg/mL | MIC90 (Enterobacter cloacae [35]): > 128 µg/mL | Activity (Pseudomonas aeruginosa [36]): 65.6% | Activity (Morganella morganii [37]): 0% | Activity (Escherichia coli [38]): 100% | Activity (Providencia rettgeri [39]): 84.6% | Activity (Pseudomonas sp. [40]): 0% | Activity (Providencia rettgeri [41]): 0% | Activity (Staphylococcus aureus [42]): 85.7% | MIC50 [43]: 0.06 µg/mL | MIC90 [43]: 4 µg/mL | MIC50 (Providencia rettgeri [44]): 64 µg/mL | MIC90 (Providencia rettgeri [44]): 128 µg/mL

Source: ChEMBL document CHEMBL1275533, “In vitro antibacterial activity of vertilmicin and its susceptibility to modifications by the recombinant AAC6'-APH2'' enzyme” (2008)
